# Reference: patent US9861703B2 (Jinan Platinum Pharmatech Co. Ltd., priority 2013, dated 2018)
# Key:
# [1] = test system: 7 cell lines (ES-2, K562, PC-3, MCF-7, Hela, H7402, 3-AO); test: MTT proliferation inhibition, all 7 tumor cell lines (summary in words); type: cell-based
# Method: (§1) Human leukemia cell line K562, clear-cell ovarian carcinoma cell line ES-2, human prostate cancer cell line PC-3, human breast cancer cell line MCF-7, cell line Hela, human liver cancer cell line H7402 and human ovarian cancer cell line 3-AO were transferred into a culture flask and were cultured in a medium at 37° C. in a 5% CO2 and saturation humidity. One bottle of cells in logarithmic growth phase was picked out and was blew and beaten to be uniform with a pipette, then took some cell suspension solution to prepare blood counting plate smear to count cells under inverted microscope, and then adjusted the cell number to be 1×10^5/mL by adding some culture medium. Cells were seeded on a 96-well plate on which also drug tests performed. Blank control group, negative control group, positive control group and drug test group were established on the plate while the surrounding wells of the plate were not used (but filled with sterile PBS), wherein the blank control groups were prepared by addition of culture medium 150 μL per well, the negative control groups were prepared by addition of cell suspension solution 100 μL per well and culture medium 50 μL per well, the positive control groups were prepared by addition of cell suspension solution 100 μL per well and positive control drug solution 50 μL per well, the drug test groups were prepared by addition of cell suspension solution 100 μL per well and test compound solution 50 μL per well, and there were 5 different concentrations of drug in the positive control group and the drug test group respectively: 0.01, 0.1, 1, 10, 100 μmol·L^−1, each concentration was established with 3 parallel wells. After the drug was added, the 96-well plate was incubated for 48 h at 37° C. in a CO2 incubator of 5% CO2 and saturation humidity. Upon completion of the incubation, 20 μL MTT solution (concentration was 5 mg/mL) was added to each well and incubated for an additional 4 h, and after the 96-well plate was centrifuged at 2000 rpm for 30 min, medium of each well was suck out carefully and removed and 100 μL DMSO was added instead, followed by vibrating on a tablet shaker for 15 min to re-dissolve formazan crystals completely. OD value of each well was measured at 570 nm wavelength using an enzyme-linked immunosorbent assay reader to calculate cellular proliferation inhibitory ratio of each drug in different concentrations. And half-inhibitory concentration (IC50) was calculated using statistical software SPSS 16.0, wherein the cellular proliferation inhibitory ratio can be calculated as following equation: […]
# [2] = target: T1, Aminopeptidase N (Sus scrofa, UniProt P15145); test: Inhibition activity against enzyme in vitro (aminopeptidase N, L-Leu-p-nitroanilide substrate); type: biochemical; conditions: for IC50: 37° C., 0.5 h, absorbance 405 nm, PBS pH 7.2, read-out: IC50(μM) APN
# T1 construct: purchased Sigma
# T1 sequence (P15145 1-963): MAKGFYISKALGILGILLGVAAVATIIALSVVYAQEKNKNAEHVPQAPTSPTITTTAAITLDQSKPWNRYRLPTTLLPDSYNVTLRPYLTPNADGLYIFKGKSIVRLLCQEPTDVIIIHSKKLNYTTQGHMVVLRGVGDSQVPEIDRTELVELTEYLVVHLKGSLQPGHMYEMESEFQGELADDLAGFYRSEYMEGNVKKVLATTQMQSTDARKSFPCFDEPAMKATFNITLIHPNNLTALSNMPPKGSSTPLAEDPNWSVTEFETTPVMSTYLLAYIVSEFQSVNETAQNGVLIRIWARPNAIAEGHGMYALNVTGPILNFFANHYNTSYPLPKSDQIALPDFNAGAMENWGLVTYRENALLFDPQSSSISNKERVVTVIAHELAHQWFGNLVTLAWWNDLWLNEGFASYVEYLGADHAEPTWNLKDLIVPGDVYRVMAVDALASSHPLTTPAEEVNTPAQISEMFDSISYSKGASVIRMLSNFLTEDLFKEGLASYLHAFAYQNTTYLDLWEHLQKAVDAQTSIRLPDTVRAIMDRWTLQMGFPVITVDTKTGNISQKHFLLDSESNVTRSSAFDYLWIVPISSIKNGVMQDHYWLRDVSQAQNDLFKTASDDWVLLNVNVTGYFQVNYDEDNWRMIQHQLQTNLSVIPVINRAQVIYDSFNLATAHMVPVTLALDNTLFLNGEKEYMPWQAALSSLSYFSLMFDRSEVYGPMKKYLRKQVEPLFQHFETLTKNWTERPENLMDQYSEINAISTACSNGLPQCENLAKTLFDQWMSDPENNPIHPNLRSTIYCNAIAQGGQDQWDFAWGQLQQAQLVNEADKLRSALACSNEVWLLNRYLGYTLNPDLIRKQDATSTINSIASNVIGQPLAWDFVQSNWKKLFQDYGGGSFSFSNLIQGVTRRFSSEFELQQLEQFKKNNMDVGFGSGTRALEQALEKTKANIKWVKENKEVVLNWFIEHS
# Method: Aminopeptidase N and L-Leu-p-nitroanilide as substrate were purchased from Sigma cooperation.
# Preparation of Buffer Solution: 12.89 g Na2HPO4.12H2O and 2.18 g NaH2PO4.2H2O were dissolved in a 1000 mL volumetric flask, then the mixture was diluted to 1000 mL with fresh distilled water to obtain 50 mM Phosphate Buffer solution (PBS, pH 7.2), which was kept at room temperature to spare.
# Aminopeptidase N was dissolved in the buffer solution to obtain 0.1 IU/mL solution.
# The substrate was dissolved in DMSO to obtain a […] solution, which was kept in refrigerator to spare.
# The aminopeptidase N solution 10 μL, the substrate solution 5 μL and compound with different concentration 40 μL were added into a 96-well cell plate, and then adjusted to 200 μL with phosphate buffer saline solution (pH 7.2). […] And the substrate solution 5 μL of blank group was adjusted to 200 μL with buffer solution. The mixture was incubated at 37° C. for 0.5 h, and absorbance was then determined at 405 nm wavelength Inhibitory ratio can be calculated as follows: […]
# According to concentration of compound and corresponding inhibitory ratio, the IC50 value was calculated by using a fitting curve of Origin 7.5 software.
# [3] = test system: human prostate cancer cell line PC-3; test: MTT proliferation inhibition, PC-3; type: cell-based; conditions: 48 h
# Method: as §1
# [4] = test system: human ovarian cancer cell line 3-AO; test: MTT proliferation inhibition, 3-AO; type: cell-based; conditions: 48 h
# Method: as §1
# [5] = test system: cell line Hela; test: MTT proliferation inhibition, Hela; type: cell-based
# Method: as §1
# [6] = test system: human leukemia cell line K562; test: MTT proliferation inhibition, K562; type: cell-based; conditions: 48 h
# Method: as §1
# [7] = test system: human breast cancer cell line MCF-7; test: MTT proliferation inhibition, MCF-7; type: cell-based; conditions: 48 h
# Method: as §1
# [8] = test system: liver cancer H22; test: Inhibition assay of oral administration against liver cancer H22 (Example 33); type: in vivo, Kunming mice; conditions: oral gavage, 100 mg/kg/d, sacrificed after 13 days
# Method: (1) the negative control: PBS; (2) Xeloda group: 100 mg/kg/d; (3) TFU group: 70 mg/kg/d; (4) BC-01 group: 100 mg/kg/d.
# [formula] [formula] [formula] 2.2: Inhibition Assay of Intravenous Administration Against Liver Cancer H22
Compound,anti-proliferation effect against all the tumor cells [1],inhibitory activity against aminopeptidase N compared with positive control ubenimex [2],IC50 [2] [µM],EC50 [3] [µM],EC50 [4] [µM],proliferation inhibition activity against Hela compared with ubenimex and 5-FU [5],EC50 ([5]; 48 h) [µM],EC50 [6] [µM],EC50 [7] [µM],"Tumor weight ([8]; two cycles (5 days on, 2 off)) [g]",inhibitory ratio (%) ([8]; two cycles)
"CC(C)C[C@H](NC(=O)[C@@H](O)[C@H](N)Cc1ccccc1)C(=O)NCC(=O)OCn1cc(F)c(=O)[nH]c1=O.Cl [BC-02, (5-fluoro-2,4-dioxo-3,4-dihydropyrimidinyl-1(2H))methyl-2-((S)-2-((2S,3R)-3-amino-2-hydroxy-4-phenylbutanamido)-4-methylpentanamido)acetate hydrochloride]",obvious anti-proliferation effect,much more potent than the positive control drug ubenimex,0.38,3.45,–,–,–,–,–,–,–
"CC(C)C[C@H](NC(=O)[C@@H](O)[C@H](N)Cc1ccccc1)C(=O)OCn1cc(F)c(=O)[nH]c1=O.Cl [BC-01, (S)-(5-fluoro-2,4-dioxo-3,4-dihydropyrimidinyl-1(2H))methyl-2-((2S,3R)-3-(amino)-2-hydroxy-4-phenylbutyryl)-4-methylpentanoate hydrochloride]",obvious anti-proliferation effect,comparable activity with ubenimex,6.98,10.7,2.59,much higher proliferation inhibition activity,0.73,5.82,1.35,0.26,66.67
